The target in the test is T1, Estrogen Receptor (ERα) in MCF-7 human ductal carcinoma breast cell line (Homo sapiens, UniProt P03372).
T1 construct: endogenous in cells; host or cells: MCF-7
T1 sequence (P03372 1-595): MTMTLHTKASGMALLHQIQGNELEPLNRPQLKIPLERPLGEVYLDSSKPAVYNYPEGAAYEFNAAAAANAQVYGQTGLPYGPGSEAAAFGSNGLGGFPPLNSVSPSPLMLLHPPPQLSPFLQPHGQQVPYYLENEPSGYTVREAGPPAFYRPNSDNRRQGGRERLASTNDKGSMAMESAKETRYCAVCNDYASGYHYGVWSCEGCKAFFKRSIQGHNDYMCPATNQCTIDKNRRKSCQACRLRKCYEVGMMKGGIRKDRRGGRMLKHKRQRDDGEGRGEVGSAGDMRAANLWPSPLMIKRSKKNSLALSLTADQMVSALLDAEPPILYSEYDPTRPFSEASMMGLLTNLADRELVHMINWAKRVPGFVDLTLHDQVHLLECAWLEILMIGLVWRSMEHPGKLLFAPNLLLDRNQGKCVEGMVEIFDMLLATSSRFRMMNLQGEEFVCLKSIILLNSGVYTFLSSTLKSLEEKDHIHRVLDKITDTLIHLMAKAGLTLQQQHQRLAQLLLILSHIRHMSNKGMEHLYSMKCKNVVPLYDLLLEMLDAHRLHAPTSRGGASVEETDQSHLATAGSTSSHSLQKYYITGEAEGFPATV
In words: MCF-7 ER degradation assay (cell based immuno-fluorescence). The note with it: MCF-7 cells; for ER degradation ≥ 90% at 0.3 μM: ER degradation by fulvestrant at 0.3 μM is defined as 100%; for DC50: 18-22 hours incubation, 50% reduction of ERα expression, single experiment or average of two or more, read-out: MCF-7 ER degradation IC50. The essentials:
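MCF-7 human ductal carcinoma breast cells were seeded at 3.75×10^4 cells per mL (40 μL per well) in 384 well plates with phenol red free DMEM containing 2 mM L-Glutamine and 5% (v/v) Charcoal/Dextran treated foetal calf serum. After overnight culture, compounds were acoustically dispensed, incubated 18-22 hours, then cells were formaldehyde-fixed and immunostained for ERα.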

The structures appear in SMILES notation.

Regarding `Cc1ncsc1-c1ccc(CNC(=O)[C@@H]2C[C@@H](O)CN2C(=O)[C@@H](NC(=O)COCCCC2CN(CCOc3cc(F)c([C@@H]4c5[nH]c6ccccc6c5C[C@@H](C)N4CC(C)(C)F)c(F)c3)C2)C(C)(C)C)cc1` [Example 47, (2S,4R)-1-((S)-2-(2-(3-(1-(2-(3,5-difluoro-4-((1R,3R)-2-(2-fluoro-2-methylpropyl)-3-methyl-2,3,4,9-tetrahydro-1H-pyrido[3,4-b]indol-1-yl)phenoxy)ethyl)azetidin-3-yl)propoxy)acetamido)-3,3-dimethylbutanoyl)-4-hydroxy-N-(4-(4-methylthiazol-5-yl)benzyl)pyrrolidine-2-carboxamide], the “ER degradation ≥ 90% at 0.3 μM” value was “•” and the DC50 amounted to 600 pM.
`Cc1ncsc1-c1ccc(CNC(=O)[C@@H]2C[C@@H](O)CN2C(=O)[C@@H](NC(=O)COCCCCCN(C)CCOc2cc(F)c([C@@H]3c4[nH]c5ccccc5c4C[C@@H](C)N3CC(C)(C)F)c(F)c2)C(C)(C)C)cc1` [Example 49, (2S,4R)-1-((S)-2-(2-((5-((2-(3,5-difluoro-4-((1R,3R)-2-(2-fluoro-2-methylpropyl)-3-methyl-2,3,4,9-tetrahydro-1H-pyrido[3,4-b]indol-1-yl)phenoxy)ethyl)(methyl)amino)pentyl)oxy)acetamido)-3,3-dimethylbutanoyl)-4-hydroxy-N-(4-(4-methylthiazol-5-yl)benzyl)pyrrolidine-2-carboxamide]: the “ER degradation ≥ 90% at 0.3 μM” value is recorded as “•” and the DC50 turned out to be 900 pM.
The like results for `Cc1ncsc1-c1ccc([C@H](C)NC(=O)[C@@H]2C[C@@H](O)CN2C(=O)[C@@H](NC(=O)COCCc2ccc(COc3cc(F)c([C@@H]4c5[nH]c6ccccc6c5C[C@@H](C)N4CC(C)(C)F)c(F)c3)nc2)C(C)(C)C)cc1` [Example 159, (2S,4R)-1-((S)-2-(2-(2-(6-((3,5-Difluoro-4-((1R,3R)-2-(2-fluoro-2-methylpropyl)-3-methyl-2,3,4,9-tetrahydro-1H-pyrido[3,4-b]indol-1-yl)phenoxy)methyl)pyridin-3-yl)ethoxy)acetamido)-3,3-dimethylbutanoyl)-4-hydroxy-N—((S)-1-(4-(4-methylthiazol-5-yl)phenyl)ethyl)pyrrolidine-2-carboxamide] were, in that order, “••” and 500 pM.
With `Cc1ncsc1-c1ccc(CNC(=O)[C@@H]2C[C@@H](O)CN2C(=O)[C@@H](NC(=O)CCCCCCCCCOc2cc(F)c([C@@H]3c4[nH]c5ccccc5c4C[C@@H](C)N3CC(C)(C)F)c(F)c2)C(C)(C)C)cc1` [Example 11, (2S,4R)-1-((S)-2-(10-(3,5-Difluoro-4-((1R,3R)-2-(2-fluoro-2-methylpropyl)-3-methyl-2,3,4,9-tetrahydro-1H-pyrido[3,4-b]indol-1-yl)phenoxy)decanamido)-3,3-dimethylbutanoyl)-4-hydroxy-N-(4-(4-methylthiazol-5-yl)benzyl)pyrrolidine-2-carboxamide], the “ER degradation ≥ 90% at 0.3 μM” value is recorded as “••” and the DC50 turned out to be 3200 pM.
The corresponding values for `Cc1ncsc1-c1ccc(CNC(=O)[C@@H]2C[C@@H](O)CN2C(=O)[C@@H](NC(=O)CCCCCCCCCCOc2cc(F)c([C@@H]3c4[nH]c5ccccc5c4C[C@@H](C)N3CC(C)(C)F)c(F)c2)C(C)(C)C)cc1` [Example 32, (2S,4R)-1-((S)-2-(11-(3,5-Difluoro-4-((1R,3R)-2-(2-fluoro-2-methylpropyl)-3-methyl-2,3,4,9-tetrahydro-1H-pyrido[3,4-b]indol-1-yl)phenoxy)undecanamido)-3,3-dimethylbutanoyl)-4-hydroxy-N-(4-(4-methylthiazol-5-yl)benzyl)pyrrolidine-2-carboxamide] are “•” and 13000 pM.
Consider `Cc1ncsc1-c1ccc(CNC(=O)[C@@H]2C[C@@H](O)CN2C(=O)[C@@H](NC(=O)CNCc2ccc(COc3cc(F)c([C@@H]4c5[nH]c6ccccc6c5C[C@@H](C)N4CC(C)(C)F)c(F)c3)nc2)C(C)(C)C)cc1` [Example 146], for which the “ER degradation ≥ 90% at 0.3 μM” value is “•” and the DC50 was found to be 600 pM.

Source of the values: patent US10519152B2, “Compounds and their use in treating cancer” (AstraZeneca AB, priority 2017, dated 2019).
